In ChEMBL document CHEMBL1201862, “PubChem BioAssay data set” (2004):
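A five-concentration, 48-hour dose response in 96-well plates underlies each endpoint, interpolated linearly between surrounding concentrations. GI50: concentration for 50% inhibition of growth.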 Calls of active or inactive are those of the source. Rule as the data show it: active = GI50 up to about 1.1 µM and inactive = higher.

Columns and labels:
Test in all cases: growth of human tumour cells (NCI), 48 h
[1] = system: 786-0
[2] = system: A498
[3] = system: A549
[4] = system: ACHN
[5] = system: CAKI-1
[6] = system: CCRF-CEM
[7] = system: DLD-1
[8] = system: DMS-114
[9] = system: DMS-273
[10] = system: EKVX
[11] = system: HCC 2998
[12] = system: HCT-116
[13] = system: HCT-15
[14] = system: HL-60
[15] = system: HOP-18
[16] = system: HOP-62
[17] = system: HOP-92
[18] = system: HT-29
[19] = system: IGROV-1
[20] = system: K562
[21] = system: KM-20L2
[22] = system: KM12
[23] = system: LOX IMVI
[24] = system: LXFL 529
[25] = system: M14
[26] = system: M19-MEL
[27] = system: MOLT-4
[28] = system: Malme-3M
[29] = system: NCI-H226
[30] = system: NCI-H23
[31] = system: NCI-H460
[32] = system: NCI-H522
[33] = system: OVCAR-4
[34] = system: OVCAR-5
[35] = system: OVCAR-8
[36] = system: RPMI-8226
[37] = system: RXF 393
[38] = system: SF-268
[39] = system: SF-295
[40] = system: SF-539
[41] = system: SK-MEL-28
[42] = system: SK-MEL-2
[43] = system: SK-MEL-5
[44] = system: SK-OV-3
[45] = system: SN12C
[46] = system: SNB-19
[47] = system: SNB-75
[48] = system: SNB-78
[49] = system: SR
[50] = system: SW-620
[51] = system: TK-10
[52] = system: U-251
[53] = system: UACC-257
[54] = system: UACC-62
[55] = system: UO-31
[56] = system: XF498
[57] = system: COLO 205
[58] = system: OVCAR-3

N=C(NC(=S)N1CCCCC1)N1CCCCC1 was tested, and the GI50 [1] was > 100 µM (inactive), the GI50 [2] was > 100 µM (inactive) and the GI50 [3] was > 100 µM (inactive). For the same molecule, the GI50 [4] was > 100 µM (inactive), the GI50 [5] was > 100 µM (inactive) and the GI50 [6] was > 100 µM (inactive). For the same molecule, the GI50 [7] was > 100 µM (inactive), the GI50 [8] was > 100 µM (inactive) and the GI50 [9] was > 100 µM (inactive). For the same molecule, the GI50 [10] was > 100 µM (inactive), the GI50 [11] was > 100 µM (inactive) and the GI50 [12] was > 100 µM (inactive). For the same molecule, the GI50 [13] was > 100 µM, the GI50 [14] was > 100 µM (inactive) and the GI50 [15] was > 100 µM (inactive). For the same molecule, the GI50 [16] was > 100 µM (inactive), the GI50 [17] was > 100 µM (inactive) and the GI50 [18] was > 100 µM (inactive). For the same molecule, the GI50 [19] was > 100 µM (inactive), the GI50 [20] was > 100 µM (inactive) and the GI50 [21] was > 100 µM (inactive). For the same molecule, the GI50 [22] was > 100 µM (inactive), the GI50 [23] was > 100 µM (inactive) and the GI50 [24] was > 100 µM (inactive). For the same molecule, the GI50 [25] was > 100 µM (inactive), the GI50 [26] was > 100 µM (inactive) and the GI50 [27] was > 100 µM (inactive). For the same molecule, the GI50 [28] was > 100 µM (inactive), the GI50 [29] was 5.71 µM (inactive) and the GI50 [30] was > 100 µM (inactive). For the same molecule, the GI50 [31] was > 100 µM (inactive), the GI50 [32] was > 100 µM (inactive) and the GI50 [33] was > 100 µM (inactive). The GI50 [34] was > 100 µM (inactive), the GI50 [35] was > 100 µM (inactive) and the GI50 [36] was > 100 µM (inactive). The GI50 [37] was > 100 µM (inactive), the GI50 [38] was > 100 µM (inactive) and the GI50 [39] was > 100 µM (inactive). The GI50 [40] was > 100 µM (inactive), the GI50 [41] was > 100 µM (inactive) and the GI50 [42] was > 100 µM (inactive). The GI50 [43] was > 100 µM (inactive), the GI50 [44] was > 100 µM (inactive) and the GI50 [45] was > 100 µM (inactive). The GI50 [46] was > 100 µM (inactive), the GI50 [47] was > 100 µM (inactive) and the GI50 [48] was > 100 µM (inactive). The GI50 [49] was > 100 µM (inactive), the GI50 [50] was > 100 µM (inactive) and the GI50 [51] was > 100 µM (inactive). For the same molecule, the GI50 [52] was > 100 µM (inactive), the GI50 [53] was > 100 µM (inactive) and the GI50 [54] was > 100 µM (inactive). The GI50 [55] was > 100 µM (inactive) and the GI50 [56] was > 100 µM (inactive).

For C(=C\c1ccc2ccccc2c1Nc1ccccc1)/c1ccccc1, the GI50 [1] was 17 µM (inactive), the GI50 [2] was 18.3 µM (inactive) and the GI50 [3] was 49.3 µM (inactive). For the same molecule, the GI50 [4] was 20.6 µM (inactive), the GI50 [5] was 23.2 µM (inactive) and the GI50 [6] was 11.9 µM (inactive). For the same molecule, the GI50 [57] was > 71.3 µM (inactive), the GI50 [7] was 17.3 µM (inactive) and the GI50 [8] was 38.8 µM (inactive). For the same molecule, the GI50 [9] was 32.7 µM (inactive), the GI50 [10] was > 100 µM (inactive) and the GI50 [11] was > 70.5 µM (inactive). The GI50 [12] was 17.8 µM (inactive), the GI50 [13] was > 100 µM and the GI50 [14] was > 100 µM (inactive). The GI50 [15] was 26.4 µM (inactive), the GI50 [16] was 20.1 µM (inactive) and the GI50 [17] was 18.2 µM (inactive). The GI50 [18] was 29.6 µM (inactive), the GI50 [19] was 31 µM (inactive) and the GI50 [20] was 11.9 µM (inactive). For the same molecule, the GI50 [21] was 45.1 µM (inactive), the GI50 [22] was 51.3 µM (inactive) and the GI50 [23] was > 66.4 µM (inactive). For the same molecule, the GI50 [24] was > 73.1 µM (inactive), the GI50 [25] was 18.7 µM (inactive) and the GI50 [26] was > 92.7 µM (inactive). The GI50 [27] was 15.2 µM (inactive), the GI50 [28] was 33.2 µM (inactive) and the GI50 [29] was 33.2 µM (inactive). For the same molecule, the GI50 [30] was 19.9 µM (inactive), the GI50 [31] was 27.9 µM (inactive) and the GI50 [32] was 41.6 µM (inactive). The GI50 [58] was 22.4 µM (inactive), the GI50 [33] was 8.15 µM (inactive) and the GI50 [34] was > 100 µM (inactive). For the same molecule, the GI50 [35] was 22 µM (inactive), the GI50 [36] was 25.1 µM (inactive) and the GI50 [37] was 8.22 µM (inactive). The GI50 [38] was 36.2 µM (inactive), the GI50 [39] was 41.9 µM (inactive) and the GI50 [40] was 32.2 µM (inactive). The GI50 [41] was 46 µM (inactive), the GI50 [42] was > 60.5 µM (inactive) and the GI50 [43] was 78.3 µM (inactive). For the same molecule, the GI50 [44] was 29.8 µM (inactive), the GI50 [45] was 33.6 µM (inactive) and the GI50 [46] was 28 µM (inactive). The GI50 [47] was 15.7 µM (inactive), the GI50 [48] was 38.6 µM (inactive) and the GI50 [49] was 15.2 µM (inactive). The GI50 [50] was 60.3 µM (inactive), the GI50 [51] was 44.5 µM (inactive) and the GI50 [52] was 25.9 µM (inactive). The GI50 [53] was > 75 µM (inactive), the GI50 [54] was 51.9 µM (inactive) and the GI50 [55] was 29.8 µM (inactive). For the same molecule, the GI50 [56] was 18.4 µM (inactive).
